In US20260240837A1, “Compositions Reducing the Expression or Activity of C1 GALT1 for Treating Ewing Sarcoma” (University of Massachusetts Medical School, priority 2023, published 2026):
Entries after “also recorded” stand apart in the source; their conditions may differ. Residues, ends and D or L forms follow the SMILES beside them. *: point of attachment. Cbz = O=C(OCc1ccccc1)*

Key:
EWSR1::FLI1 [1] = assay: qRT-PCR of EWSR1::FLI1 expression in A673 cells; assay type: cell-based, human; settings: compound at 2.5-10 μM for 48 hours, FIGS. 6B-6C
Experimental: (§1) Total RNA was isolated from cells using Trizol (Invitrogen, Cat #15596). cDNA was synthesized using Proto Script II reverse transcription kit (New England Biolabs (NEB), Ipswich, MA, Cat #E6560) and real-time PCR reactions were performed using Quant Studio 3 (Applied Biosystems by Thermo Fisher Scientific) using primer sequences listed in Table 2. Gene expression was normalized to that of GAPDH. A control without reverse transcription (no-RT control) was carried out in parallel to rule out the possibility of DNA contamination. The experiments were performed three independent times.
(§2) In the experiment in FIG. 5D, cells were treated with 10 μM ketoconazole (Sigma, Cat #PHR1385; CAS No. 65277-42-1) for 72 hours. Dimethyl sulfoxide (DMSO) was used as vehicle control.

EWSR1::FLI1 [2] = assay: Immunoblot of EWSR1::FLI1 protein levels (anti-FLI1 antibody) in A673 cells; assay type: cell-based, human; settings: compound at 2.5-10 μM for 48 hours, FIGS. 6B-6C
Experimental: Cells extracts were prepared in radioimmunoprecipitation assay (RIPA) buffer (1% Triton-X100, 0.1% sodium dodecyl sulfate (SDS), 0.5% deoxycholic acid, 20 mM tris(hydroxymethyl)aminomethane (Tris), pH 7.5, 10% glycerol) containing 1× complete ethylenediaminetetraacetic acid (EDTA)-free protease inhibitor cocktail (Roche, Basel, Switzerland, Cat #11873580001) and 1 mM phenylmethylsulfonyl fluoride (PMSF). For the immunoblot in FIG. 7L, cells expressing FLAG-SMO (wild-type and mutants) were treated with 10 μM MG132 (Selleck Chemicals, Houston, TX, Cat #S2619; CAS No. 1211877-36-9) for 12 hours or 100 nM bafilomycin A1 (Selleck Chemicals, Cat #S1413; CAS No. 88899-55-2) for 6 hours. Total cell lysates (30 μg) were subjected to SDS-polyacrylamide gel electrophoresis (PAGE) and transferred to nitrocellulose membrane, which were blocked with 5% non-fat dry milk, and incubated with the following antibodies overnight at 4° C.: anti-C1GALT1 (1:1000 dilution; Santa Cruz Biotechnology, Dallas, TX, Cat #SC-100745), anti-FLI1 (1:2000 dilution; Abcam, Cambridge, United Kingdom, Cat #ab 133485), anti-EWSR1 (1:1000 dilution; Sigma Aldrich, Cat #HPA051771), anti-GLI1 (1:1000 dilution; Cell Signaling Technology, Danvers, MA, Cat #2553), anti-GLI2 (1:500 dilution; Abcam, Cat #ab187386), anti-PARP1 (1:500 dilution; Santa Cruz Biotechnology, Cat #SC-8007), anti-SMO (1:2000 dilution; Abcam, Cat #ab236465), anti-β-actin (1:2000 dilution; Sigma, Cat #A2228), anti-GAPDH (1:2000 dilution; Abcam, Cat #ab8245) or anti-FLAG M2 (1:1000 dilution; Sigma, Cat #F1804). The blots were imaged by exposing to x-ray film. The experiments were conducted three independent times, and the results from one representative experiment are shown.
as §2

EWSR1::FLI1/ERG = assay: qRT-PCR and immunoblot of EWSR1::FLI1/ERG in TC-71, TC-32 and TC-106 cells; assay type: cell-based, human; settings: 48 hours, FIG. 9D
[3] = Animal weight / tolerability in xenograft-bearing mice; settings: mice with TC-71, TC-32 or TC-106 xenografts; 100 mg/kg; FIG. 11G
Experimental: A673, TC-71, TC-106, or TC-32 cells (5×10^6) were suspended in PBS and […] ® extracellular matrix (Corning Cat #356234) in a 1:1 ratio, and subcutaneously injected into the right flank of 6-7 week old NOD scid gamma (NSG) immunocompromised mice (n=3 for each vehicle or drug treatment). Tumor dimensions were measured every 3 days with calipers, and the tumor volume was calculated using the formula volume=width^2× length/2.

SMO = assay: Immunoblot and qRT-PCR of SMO in A673 cells; assay type: cell-based, human; settings: 100 nM ITZ for 72 hours plus MG132 or BafA1, FIG. 7K
Experimental: as §1
(§3) Cells extracts were prepared in radioimmunoprecipitation assay (RIPA) buffer (1% Triton-X100, 0.1% sodium dodecyl sulfate (SDS), 0.5% deoxycholic acid, 20 mM tris(hydroxymethyl)aminomethane (Tris), pH 7.5, 10% glycerol) containing 1× complete ethylenediaminetetraacetic acid (EDTA)-free protease inhibitor cocktail (Roche, Basel, Switzerland, Cat #11873580001) and 1 mM phenylmethylsulfonyl fluoride (PMSF). For the immunoblot in FIG. 7L, cells expressing FLAG-SMO (wild-type and mutants) were treated with 10 μM MG132 (Selleck Chemicals, Houston, TX, Cat #S2619; CAS No. 1211877-36-9) for 12 hours or 100 nM bafilomycin A1 (Selleck Chemicals, Cat #S1413; CAS No. 88899-55-2) for 6 hours. […]

[4] = system: FLAG-SMO (T55A) and FLAG-SMO (T500A); assay: Immunoblot of FLAG-SMO mutants stably expressed in A673 cells; assay type: cell-based, human; settings: 10 μM MG132 for 12 hours or 100 nM bafilomycin A1 for 6 hours, FIG. 7L
Text: To generate cell lines stably ectopically expressing EWSR1::FLI1 (also referred to as EWS-FLI1, EWS::FLI1, or EWSR1-FLI1), TC-71 or NIH 3T3 cells were transduced with the lentiviral expression plasmid pCDH-puro-EWS-FLI1 or, as a control, pCDH-CMV-MCS-EFla-Puro and cells were selected with puromycin for five days. NIH 3T3 cells stably expressing SMO were generated by transduction of pHAGE-SMO or, as a control, pHAGE puro. NIH 3T3 cells stably expressing C1GALT1 were generated by transduction of C1GALT1-expression plasmid EX-W0494-Lv120 or, as a control, EX-EGFP-Lv120. A673 cell lines stably expressing FLAG-tagged wild-type SMO, FLAG-SMO (T55A), or FLAG-SMO (T500A) used lentiviral plasmids synthesized by GenScript in the pGenLenti vector.
Cells extracts were prepared in radioimmunoprecipitation assay (RIPA) buffer (1% Triton-X100, 0.1% sodium dodecyl sulfate (SDS), 0.5% deoxycholic acid, 20 mM tris(hydroxymethyl)aminomethane (Tris), pH 7.5, 10% glycerol) containing 1× complete ethylenediaminetetraacetic acid (EDTA)-free protease inhibitor cocktail (Roche, Basel, Switzerland, Cat #11873580001) and 1 mM phenylmethylsulfonyl fluoride (PMSF). […]

[5] = system: FLAG-SMO (T55A) and FLAG-SMO (T500A); assay: Ubiquitination immunoprecipitation assay in A673 cells; assay type: cell-based, human; settings: A673 cells expressing HA-Ub; 10 μM MG132 or 100 nM bafilomycin A1 for 8 hours; FIG. 7M
Experimental: A673 cells stably expressing FLAG-tagged wild-type SMO, FLAG-SMO (T55A) or FLAG-SMO (T500A) were transfected with a plasmid expressing HA-tagged ubiquitin (HA-Ub; Addgene plasmid #18712 (Kamitani et al., 1997) and treated in the presence or absence of 10 μM MG132 for 8 hours or 100 nM bafilomycin A1 for 8 hours. Cell lysates were incubated with either an anti-HA magnetic beads (Sigma, Cat #SAE0197) or anti-FLAG M2 magnetic beads (Sigma, Cat #M8823), and immunoprecipitated proteins were detected using an anti-FLAG M2 (1:1500 dilution; Sigma, Cat #F1804) or anti-HA (1:1500 dilution; Cell Signaling Cat #2367) antibody.

[6] = system: FLAG-SMO (T55A) and FLAG-SMO (T500A); assay: Immunoblot of FLAG-SMO mutants stably expressed in TC-71 cells; assay type: cell-based, human; settings: FIG. 9F
Experimental: as §3

SMO and GLI1 = assay: Immunoblot and qRT-PCR of SMO and GLI1 in NIH 3T3 cells; assay type: cell-based, mouse; settings: FIG. 7E
Experimental: as §1, §3

[7] = system: EWSR1::FLI1^tdTomato reporter; assay: Flow cytometry of tdTomato in A673/EWSR1::FLI1^tdTomato/Cas9/EGFP reporter cells; assay type: cell-based, human; settings: 10 μM for 72 hours; FIG. 5D
Experimental: To confirm that knockdown of EWSR1::FLI1 would reduce tdTomato fluorescence, A673/EWSR1::FLI1^tdTomato cells (1×10^5 cells/well in a 6-well plate) were infected with lentiviral particles expressing a non-silencing (NS), EWSR1, or FLI1 short hairpin RNA (shRNA) (Table 3), selected with 2 μg/ml puromycin for 5 days, and analyzed by flow cytometry using a BD LSRII flow cytometer (BD Biosciences). A673/EWSR1::FLI1^tdTomato cells were then infected with lentiviral particles expressing the plasmid lentiCas9-Blast (a gift from Feng Zhang; Addgene plasmid #52962; (Sanjana et al., 2014)) and selected with 3 μg/ml blasticidin for 7 days. Cas9 activity was confirmed by transducing A673/EWSR1::FLI1^tdTomato/Cas9 cells with the lentiviral vector pXPR_011 (a gift from John Doench and David Root; Addgene plasmid #59702; (Doench et al., 2014)), which carries a puromycin resistance marker and includes an enhanced green fluorescent protein (EGFP, also referred to as GFP) reporter gene and an sgRNA sequence specifically targeting the EGFP gene, followed by selection with 2 μg/ml puromycin for 5 days and analysis of EGFP by flow cytometry. Finally, A673/EWSR1::FLI1^tdTomato/Cas9 cells were infected with lentiviral particles expressing the plasmid pLenti CMV EGFP Blast (659-1) (a gift from Eric Campeau and Paul Kaufman; Addgene plasmid #17445 (Campeau et al., 2009)). […]

C1GALT1 = C1GALT1 (Homo sapiens, UniProt Q9NS00); settings: previous studies (Lin et al., 2018); cited from earlier work
C1GALT1, sequence (Q9NS00 whole entry): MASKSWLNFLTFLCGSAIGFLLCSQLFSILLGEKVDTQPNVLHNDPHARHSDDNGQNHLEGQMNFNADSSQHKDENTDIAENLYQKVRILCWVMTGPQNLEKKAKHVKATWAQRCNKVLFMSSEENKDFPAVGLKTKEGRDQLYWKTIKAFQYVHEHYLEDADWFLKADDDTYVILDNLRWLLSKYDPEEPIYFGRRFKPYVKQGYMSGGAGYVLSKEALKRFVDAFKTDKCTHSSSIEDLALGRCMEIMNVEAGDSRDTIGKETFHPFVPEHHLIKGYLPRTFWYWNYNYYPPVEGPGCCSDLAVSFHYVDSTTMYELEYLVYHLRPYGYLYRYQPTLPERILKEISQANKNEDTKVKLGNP

CN(C)c1ccccc1CN1CCCN(Cc2ccccc2N(C)C)C1c1ccncc1 [GANT-61]
EWSR1::FLI1 mRNA levels (EWSR1::FLI1 [1]): dose-dependent reduction | EWSR1::FLI1 protein levels (EWSR1::FLI1 [2]): dose-dependent reduction

CCC(C)n1ncn(-c2ccc(N3CCN(c4ccc(OCC5COC(Cn6cncn6)(c6ccc(Cl)cc6Cl)O5)cc4)CC3)cc2)c1=O (stereo not shown) [ITZ, itraconazole]
EWSR1::FLI1/ERG expression (EWSR1::FLI1/ERG): reduced | animal weight [3]: absence of weight loss

CC(C)C[C@@H](C=O)NC(=O)[C@H](CC(C)C)NC(=O)[C@H](CC(C)C)NC(=O)OCc1ccccc1 [MG132] (Cbz-Leu-Leu-Leu-aldehyde)
reduction in SMO levels observed upon ITZ treatment (SMO): reversed | expression of SMO (T55A) and SMO (T500A) mutant proteins [4]: restored | ubiquitination of SMO (T55A) and SMO (T500A) [5]: detected | stability of O-GalNAc-glycosylation-defective SMO mutants [6]: restored

CNC1CCC(N(Cc2cccc(-c3ccncc3)c2)C(=O)c2sc3ccccc3c2Cl)CC1.Cl (stereo not shown) [SAG, Smoothened Agonist hydrochloride]
EWSR1::FLI1 mRNA levels (EWSR1::FLI1 [1]): dose-dependent increase | EWSR1::FLI1 protein levels (EWSR1::FLI1 [2]): dose-dependent increase | levels of SMO and GLI1 (SMO and GLI1): increased levels

CO/C1=C\C(C)=C\[C@@H](C)[C@@H](O)[C@@H](C)C/C(C)=C/C=C/[C@H](OC)[C@@H]([C@@H](C)[C@@H](O)[C@H](C)[C@@]2(O)C[C@@H](O)[C@H](C)[C@@H](C(C)C)O2)OC1=O [bafilomycin A1]
reduction in SMO levels observed upon ITZ treatment (SMO): reversed | expression of SMO (T55A) and SMO (T500A) mutant proteins [4]: restored | ubiquitination of SMO (T55A) and SMO (T500A) [5]: detected | stability of O-GalNAc-glycosylation-defective SMO mutants [6]: restored

CC1=C2C[C@H]3[C@@H](CC=C4C[C@@H](O)CC[C@@]43C)[C@@H]2CC[C@]12O[C@@H]1C[C@H](C)CN[C@H]1[C@H]2C [cyclopamine]
EWSR1::FLI1 mRNA levels (EWSR1::FLI1 [1]): dose-dependent reduction | EWSR1::FLI1 protein levels (EWSR1::FLI1 [2]): dose-dependent reduction

CC(=O)N1CCN(c2ccc(OCC3COC(Cn4ccnc4)(c4ccc(Cl)cc4Cl)O3)cc2)CC1 (stereo not shown) [ketoconazole]
EWSR1::FLI1 expression (EWSR1::FLI1^tdTomato reporter) [7]: does not reduce; also recorded: no effect; also recorded: did not result in reduced | inhibition of C1GALT1 (C1GALT1): not to inhibit; also recorded: does not inhibit
